Laboratory results as given in patent publication US4202891A, “15-Oxygenated sterol compounds and the use of such compounds to inhibit the biosynthesis of sterols” (priority 1977, dated 1980).

Columns and labels:
Format in all cases: in vivo, rat (male, Sprague-Dawley)
[1] = Adverse observations in rats on 0.2% ketone diet; details: 0.2% in diet
Protocol: (§1) Another experiment following essentially the procedure of Example 43 was performed in which the 5α-cholest-8(14)-en-3β-ol-15-one was incorporated into the Cholesterol Free Test Diet at a concentration of 0.2%.

[2] = Body weight of rats, sterol in diet
From the text: (§2) Male rats of the Sprague-Dawley strain were purchased from Sprague-Dawley Farms (Madison, Wisconsin). The rats were maintained on a light (7:00 A.M.-5:30 P.M.)--dark (5:30 P.M.-7:00 A.M.) cycle and fed a Cholesterol Free Test Diet (United States Biochemical Corporation, Cleveland, Ohio) for a period of 13 days prior to the initiation of the experimental period. Six days prior to the initiation of the experimental period blood samples were taken for assay of serum cholesterol concentration and, based upon the results of these analyses, rats were divided into 3 groups with approximately the same mean serum cholesterol concentration. The rats were then individually housed in metabolic cages (Econo-Metabolism Units, Maryland Plastics, New York, New York) for 6 days prior to the initiation of the experimental period. The animals were maintained on the light-dark cycle throughout the experimental period.
(§3) The individual animals were weighed daily throughout the experimental period. Food consumption by the individual rats was similarly recorded daily. No significant spillage of the food or contamination of the food by feces or urine was possible due to the nature of the matabolic cage and the food receptacles utilized.
(§4) 5α-Cholest-8(14)-en-3β-ol-15-one (500 mg), prepared and purified as described in Example 1, was added in small portions to 500 g of the Cholesterol Free Test Diet in a 2 liter glass stoppered bottle. After each addition of the sterol to the diet, the bottle was rolled and shaken thoroughly. The resulting 0.1% diet with respect to the 5α-cholest-8(14)-en-3β-ol-15-one was stored at 4° C. Prior to use in feeding, the diet was allowed to warm to room temperature (~25° C.).
(§5) 2. Ketone group--7 rats with free access to the Cholesterol Free Test Diet containing 0.1% 5α-cholest-8(14)-en-3β-ol-15-one.
as §1

[3] = system: serum cholesterol; experiment: Serum cholesterol concentration in rats, sterol in Cholesterol Free Test Diet (Examples 43, 46)
From the text: as §2
Blood samples were taken from the tail vein between 8:15 A.M. and 9:30 A.M. and at no time was more than ~0.5 ml of blood removed. Serum was obtained by centrifugation of the blood using Sure-Sep Junior (General Diagnostics, Division of Warner Lambert Company, Morris Plains, New Jersey) for 20 min at 2000-2500 rpm in a table top centrifuge (Dynac, Clay Adams Model 0091). Serum cholesterol concentration was assayed by a modification of the Cholesterol Auto Test (Bio-Dynamics, BMC Division) as described in Bio-Dynamics/bmc Cholesterol Instruction (revised December, 1975).
as §4, §5, §1

[4] = Food consumption of rats, sterol in diet
From the text: as §2, §3, §4, §5, §1

[5] = 0.1% in diet, day 8, listed as Ketone
[6] = 0.1% in diet, day 8, listed as ketone
[7] = 0.1% in diet, day 4, listed as Ketone

SMILES: CC(C)CCC[C@@H](C)[C@H]1CC(=O)C2=C3CC[C@H]4C[C@@H](O)CC[C@]4(C)[C@H]3CC[C@@]21C [5α-Cholest-8(14)-en-3β-ol-15-one, 5α-cholest-8(14)-en-3β-ol-15-one]
- diarrhea ([1]; day 8): 4 of the rats in the ketone group were developing diarrhea
- death ([1]; day 9): One of these rats died the following day
- loose stools ([1]; day 9): Two other rats in this group showed loose stools on day 9
- Body weight ([2]; 0.1% in diet, day 0): 130.4 ± 4.4 g
- Body weight ([2]; 0.1% in diet, day 1): 126.6 ± 4.8 g
- Percentage change in weight from initial in individual rats ([2]; 0.1% in diet, day 1): -3.0 ± 0.7%
- Body weight ([2]; 0.1% in diet, day 2): 121.4 ± 4.4 g
- Percentage change in weight from initial in individual rats ([2]; 0.1% in diet, day 2): -7.0 ± 0.7%
- Body weight ([2]; 0.1% in diet, day 3): 120.6 ± 4.6 g
- Percentage change in weight from initial in individual rats ([2]; 0.1% in diet, day 3): -7.7 ± 0.7%
- Body weight ([2]; 0.1% in diet, day 4): 118.5 ± 4.0 g
- Percentage change in weight from initial in individual rats ([2]; 0.1% in diet, day 4): -9.1 ± 0.7%
- Body weight ([2]; 0.1% in diet, day 5): 119.4 ± 4.3 g
- Percentage change in weight from initial in individual rats ([2]; 0.1% in diet, day 5): -8.5 ± 0.5%
- Body weight ([2]; 0.1% in diet, day 6): 118.9 ± 4.8 g
- Percentage change in weight from initial in individual rats ([2]; 0.1% in diet, day 6): -8.7 ± 1.0%
- Body weight ([2]; 0.1% in diet, day 7): 116.5 ± 4.9 g
- Percentage change in weight from initial in individual rats ([2]; 0.1% in diet, day 7): -10.8 ± 1.3%
- Percentage change in weight from initial in individual rats ([2]; 0.1% in diet, day 8): -10.2 ± 0.9%
- Body weight [2, 5]: 117.3 ± 4.7 g
- Body weight [2, 6]: 117.3 g
- Body weight ([2]; 0.2% in diet, day 0): 152.3 ± 5.5 g
- Body weight ([2]; 0.2% in diet, day 1): 151.3 ± 4.7 g
- Body weight ([2]; 0.2% in diet, day 2): 145.4 ± 4.9 g
- Body weight ([2]; 0.2% in diet, day 3): 139.0 ± 4.8 g
- Body weight ([2]; 0.2% in diet, day 4): 137.4 ± 4.9 g
- Body weight ([2]; 0.2% in diet, day 5): 134.5 ± 4.5 g
- Body weight ([2]; 0.2% in diet, day 6): 130.7 ± 5.1 g
- Body weight ([2]; 0.2% in diet, day 7): 127.7 ± 5.2 g
- Body weight ([2]; 0.2% in diet, day 8, listed as Ketone): 122.3 ± 5.8 g
- Body weight ([2]; 0.2% in diet, day 8, listed as ketone): 122.3 g
- effect on serum cholesterol concentrations (in words) ([3]; 0.1% in diet): marked effect in lowering the serum cholesterol concentrations
- Serum cholesterol concentration ([3]; 0.1% in diet, day 0): 71.2 ± 0.9 mg per 100 ml
- Serum cholesterol concentration ([3]; 0.1% in diet, day 4): 50.1 mg per 100 ml
- Serum cholesterol concentration [3, 7]: 50.1 ± 2.3 mg per 100 ml
- Serum cholesterol concentration, percentage of initial levels in individual rats [3, 7]: 70.5 ± 3.6%
- Serum cholesterol concentration, percentage of initial levels in individual rats ([3]; 0.1% in diet, day 4, listed as ketone): 70.5%
- Serum cholesterol concentration ([3]; 0.1% in diet, day 8): 36.9 mg per 100 ml
- Serum cholesterol concentration [3, 5]: 36.9 ± 3.3 mg per 100 ml
- Serum cholesterol concentration, percentage of initial levels in individual rats [3, 5]: 51.8 ± 4.4%
- Serum cholesterol concentration, percentage of initial levels in individual rats [3, 6]: 51.8%
- effect on serum cholesterol concentration (in words) ([3]; 0.2% in diet): marked effect on the serum cholesterol concentration
- Serum cholesterol concentration ([3]; 0.2% in diet, day 0): 80.5 ± 2.8 mg per 100 ml
- Serum cholesterol concentration ([3]; 0.2% in diet, day 4): 73.2 mg per 100 ml
- Serum cholesterol levels, percentage of initial levels in individual rats ([3]; 0.2% in diet, day 4): 91.6 ± 4.3%
- Serum cholesterol concentration ([3]; 0.2% in diet, day 4, listed as Ketone): 73.2 ± 3.0 mg per 100 ml
- Serum cholesterol concentration ([3]; 0.2% in diet, day 7): 32.2 mg per 100 ml
- Serum cholesterol levels, percentage of initial levels in individual rats ([3]; 0.2% in diet, day 7): 40.6 ± 7.9%
- Serum cholesterol concentration ([3]; 0.2% in diet, day 7, listed as Ketone): 32.2 ± 5.9 mg per 100 ml
- Serum cholesterol concentration ([3]; 0.2% in diet, day 9): 30.3 mg per 100 ml
- Serum cholesterol levels, percentage of initial levels in individual rats ([3]; 0.2% in diet, day 9): 37.9 ± 8.8%
- Serum cholesterol concentration ([3]; 0.2% in diet, day 9, listed as Ketone): 30.3 ± 6.2 mg per 100 ml
- food consumption relative to ad libidum group (in words) ([4]; 0.1% in diet): significantly less than that of the rats in the ad libidum group
- Food consumption ([4]; 0.1% in diet, day 0): 10.4 ± 0.7 g
- Food consumption ([4]; 0.1% in diet, day 1): 5.1 ± 0.3 g
- Food consumption ([4]; 0.1% in diet, day 2): 7.1 ± 0.3 g
- Food consumption ([4]; 0.1% in diet, day 3): 5.5 ± 0.3 g
- Food consumption ([4]; 0.1% in diet, day 4): 7.1 ± 0.5 g
- Food consumption ([4]; 0.1% in diet, day 5): 5.8 ± 0.5 g
- Food consumption ([4]; 0.1% in diet, day 6): 6.6 ± 0.5 g
- Food consumption ([4]; 0.1% in diet, day 7): 7.5 ± 0.5 g
- food consumption relative to ad libidum group (in words) ([4]; 0.2% in diet): significantly less than that of the rats in the ad libidum group
- Daily food consumption ([4]; 0.2% in diet, day 0): 7.2 ± 0.6 g
- Daily food consumption ([4]; 0.2% in diet, day 1): 4.4 ± 1.1 g
- Daily food consumption ([4]; 0.2% in diet, day 2): 4.8 ± 0.4 g
- Daily food consumption ([4]; 0.2% in diet, day 3): 4.8 ± 0.2 g
- Daily food consumption ([4]; 0.2% in diet, day 4): 5.5 ± 0.4 g
- Daily food consumption ([4]; 0.2% in diet, day 5): 5.5 ± 0.3 g
- Daily food consumption ([4]; 0.2% in diet, day 6): 5.4 ± 0.2 g
- Daily food consumption ([4]; 0.2% in diet, day 7): 5.1 ± 0.2 g
- Daily food consumption ([4]; 0.2% in diet, day 8): 4.3 ± 0.6 g
